The results in this text go back to patent US20240279304A1, “DSG2 COMPOSITIONS AND METHODS” (Arvada Therapeutics, Inc., priority 2021, published 2024).

“Also recorded” adds a separate entry of the source.

The test relates to human iPSC-derived cardiomyocytes. The experiment in a line: CiPA multielectrode array (MEA) assay, cell index. In kind it is cell-based. The protocol: To determine the effect of anti-DSG2 antibodies in cardiomyocytes, the cardiac in vitro proarrhythmia (CiPA) assay was performed (Sager et al. Am Heart J 2014; 167:292-300; the contents of which are herein incorporated by reference in its entirety). CiPA is envisioned to consist of four components: (1) an evaluation of the effects of test agents on cardiac ion channel assays; (2) in silico modeling of the cardiac action potential based on the ion channel results to integrate the data with cardiac function; (3) experimental measurement of test agent effects in human ventricular myocytes to confirm the modeling result; and (4) scoring the results. The multielectrode array (MEA) assay is a component of CiPA which uses human induced pluripotent stem cell (iPSC)-derived cardiomyocytes to evaluate two-dimensional excitation propagation by recording spontaneous ECG-like field potentials. The sodium spike quantified below is a measurement of the specific sodium channel current in the cardiomyocyte and is also described in Blinova K, et al. Cell Rep. 2018 Sep. 25; 24(13):3582-3592 (the contents of which are herein incorporated by reference in its entirety). CiPA is considered a clinically validated cardiomyocyte-based assay by the FDA and the EMA. […] The parameters evaluated include measuring a change in the spike in the component of electrical signal propagation (e.g. sodium spike) and cell index—a function of cell impedance and cell number. Changes in sodium spike may be indicative of arrhythmia and a change in cell index (CI) may be indicative of changes to cell connectivity.
Cell index is inversely related the cell layer's conductivity to electrical current. Increased conductivity across the cell layer, may indicate that there are more gaps in the cell layer, implying that the cells are less well-adhered to each other. Thus, increased conductivity across the cell layer, may result in lower cell index. […] The concentration of anti-DSG2 antibodies varied from 0.00005 μg/mL to 5 μg/mL. […] The concentration of lidocaine varied from 3 μM to 100 μM. […] The concentration of anti-DSG2 antibodies varied from 0.00005 μg/mL to 5 μg/mL.

“DSG2FP#1: R&D Systems DSG2 extracellular domain (49-608 of SEQ ID NO: 30); linker IEGRMD; amino acids 100-330 of IgG1”: the “reversal of effects of anti-DSG2 antibodies on cell index (in words)” value is given as “reversed; also recorded: completely blocks the effect of the anti-DSG2 antibodies”. Under “added with Anti-DSG2 antibody (0.00005 μg/mL)”, the “Cell Index (+/- SEM)” value is 22.4 (1.9). Also, where the note is “added with Anti-DSG2 antibody (0.0005 μg/mL)”, the “Cell Index (+/- SEM)” value was 22.4 (1.1). The “Cell Index (+/- SEM)” value (added with Anti-DSG2 antibody (0.005 μg/mL)) is on record as 20.4 (0.5). Also, for the setting “added with Anti-DSG2 antibody (0.05 μg/mL)”, the “Cell Index (+/- SEM)” value is 21.6 (0.4). In addition, under “added with Anti-DSG2 antibody (0.5 μg/mL)”, the “Cell Index (+/- SEM)” value was 22.0 (0.8). Besides, the “Cell Index (+/- SEM)” value (added with Anti-DSG2 antibody (5 μg/mL)) was 24.1 (0.5). Besides, the “Cell Index (+/- SEM)” value (added with Anti-VCAM1 antibody (0.00005 μg/mL)) is 23.2 (0.7). Moreover, the “Cell Index (+/- SEM)” value (added with Anti-VCAM1 antibody (0.0005 μg/mL)) is given as 22.0 (0.5). In addition, where the note is “added with Anti-VCAM1 antibody (0.005 μg/mL)”, the “Cell Index (+/- SEM)” value is given as 21.0 (0.5). Besides, where the note is “added with Anti-VCAM1 antibody (0.05 μg/mL)”, the “Cell Index (+/- SEM)” value is recorded as 21.0 (0.4). In addition, under “added with Anti-VCAM1 antibody (0.5 μg/mL)”, the “Cell Index (+/- SEM)” value is on record as 21.8 (0.5). The “Cell Index (+/- SEM)” value (added with Anti-VCAM1 antibody (5 μg/mL)) is 24.6 (0.5). For the same substance, the “Cell Index (+/- SEM)” value (added with Rabbit IgG (0.00005 μg/mL)) was 22.5 (1.7). The “Cell Index (+/- SEM)” value (added with Rabbit IgG (0.0005 μg/mL)) was 22.4 (1.3). Besides, the “Cell Index (+/- SEM)” value (added with Rabbit IgG (0.005 μg/mL)) was 21.0 (0.8). Moreover, the “Cell Index (+/- SEM)” value (added with Rabbit IgG (0.05 μg/mL)) was 21.3 (0.4). Moreover, where the note is “added with Rabbit IgG (0.5 μg/mL)”, the “Cell Index (+/- SEM)” value is given as 21.1 (0.4). Under “added with Rabbit IgG (5 μg/mL)”, the “Cell Index (+/- SEM)” value is on record as 24.2 (0.5).
